Assay results published in the supplement of paper PMC10307832.

Experiments:
Experiment in all cases: relative viability (nuclei count vs DMSO), 5 days (fraction); higher = more cells survive
Ponatinib + Alpelisib = compound: Cc1ccc(C(=O)Nc2ccc(CN3CCN(C)CC3)c(C(F)(F)F)c2)cc1C#Cc1cnc2cccnn12 [Ponatinib] + Cc1nc(NC(=O)N2CCC[C@H]2C(N)=O)sc1-c1ccnc(C(C)(C)C(F)(F)F)c1 [Alpelisib] (partner 2 µM)
In short: (§1)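 Medians of duplicate plates are given as relative viability. That measure is the nuclei count in treated wells divided by the count in vehicle wells. Counts were taken on 4× images of lung cancer cell lines in 1536-well plates, 5 days after pin-tool dosing the day after seeding with one drug alone or a fixed anchor-drug dose plus five library-drug doses (not always all listed) in √10 steps.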

Ponatinib + Olaparib = compound: Cc1ccc(C(=O)Nc2ccc(CN3CCN(C)CC3)c(C(F)(F)F)c2)cc1C#Cc1cnc2cccnn12 [Ponatinib] + O=C(c1cc(Cc2n[nH]c(=O)c3ccccc23)ccc1F)N1CCN(C(=O)C2CC2)CC1 [Olaparib] (partner 8 µM)
In short: as §1

Pazopanib + Linsitinib = compound: Cc1ccc(Nc2nccc(N(C)c3ccc4c(C)n(C)nc4c3)n2)cc1S(N)(=O)=O [Pazopanib] + C[C@]1(O)C[C@@H](c2nc(-c3ccc4ccc(-c5ccccc5)nc4c3)c3c(N)nccn32)C1 [Linsitinib] (partner 1 µM)
In short: as §1

Pazopanib + Bortezomib = compound: Cc1ccc(Nc2nccc(N(C)c3ccc4c(C)n(C)nc4c3)n2)cc1S(N)(=O)=O [Pazopanib] + CC(C)C[C@H](NC(=O)[C@H](Cc1ccccc1)NC(=O)c1cnccn1)B(O)O [Bortezomib] (partner 0.002 µM)
In short: as §1

Cell Line | relative viability (Ponatinib + Alpelisib; first compound 0.002 µM) | relative viability (Ponatinib + Alpelisib; first compound 0.006325 µM) | relative viability (Ponatinib + Alpelisib; first compound 0.06325 µM) | relative viability (Ponatinib + Alpelisib; first compound 0.2 µM) | relative viability (Ponatinib + Olaparib; first compound 0.002 µM) | relative viability (Ponatinib + Olaparib; first compound 0.006325 µM) | relative viability (Ponatinib + Olaparib; first compound 0.06325 µM) | relative viability (Ponatinib + Olaparib; first compound 0.2 µM) | relative viability (Pazopanib + Linsitinib; first compound 0.01 µM) | relative viability (Pazopanib + Linsitinib; first compound 0.03162 µM) | relative viability (Pazopanib + Linsitinib; first compound 0.1 µM) | relative viability (Pazopanib + Linsitinib; first compound 0.3162 µM) | relative viability (Pazopanib + Linsitinib; first compound 1 µM) | relative viability (Pazopanib + Bortezomib; first compound 0.01 µM) | relative viability (Pazopanib + Bortezomib; first compound 0.03162 µM) | relative viability (Pazopanib + Bortezomib; first compound 0.1 µM) | relative viability (Pazopanib + Bortezomib; first compound 0.3162 µM) | relative viability (Pazopanib + Bortezomib; first compound 1 µM)
IA-LM | 0.756 | 0.657 | 0.828 | 0.722 | 0.705 | 0.835 | 0.785 | 0.646 | 0.428 | 0.553 | 0.527 | 0.613 | 0.622 | 0.889 | 1.05 | 0.77 | 0.797 | 0.597
NCI-H650 | 0.964 | 1.08 | 1.22 | 0.99 | 0.344 | 0.417 | 0.452 | 0.401 | 0.738 | 1.1 | 0.808 | 0.92 | 0.839 | 0.696 | 0.861 | 0.804 | 0.935 | 0.812
NCI-H2085 | 0.881 | 1.01 | 1.07 | 0.959 | 0.808 | 0.814 | 0.9 | 0.754 | 0.818 | 0.862 | 0.901 | 0.797 | 0.887 | 1.04 | 1.09 | 1.01 | 1.02 | 1.13
NCI-H838 | 1.01 | 0.982 | 1.13 | 0.812 | 0.758 | 0.771 | 0.795 | 0.669 | 1.01 | 1.05 | 1.01 | 1.18 | 1.19 | 0.898 | 0.883 | 0.927 | 0.87 | 1.2
NCI-H460 | 0.515 | 0.548 | 0.683 | 0.662 | 0.335 | 0.395 | 0.412 | 0.397 | 0.823 | 1.13 | 0.838 | 0.98 | 0.827 | 1.03 | 1.23 | 1.2 | 1.14 | 1.13
LOU-NH91 | 0.703 | 0.792 | 0.822 | 0.713 | 0.898 | 0.919 | 1.03 | 0.879 | 0.89 | 0.98 | 0.984 | 1.04 | 0.935 | 0.484 | 0.481 | 0.496 | 0.475 | 0.506
NCI-H322M | 0.77 | 0.694 | 0.866 | 0.827 | 0.787 | 0.729 | 0.739 | 0.649 | 0.772 | 1.06 | 0.899 | 1.05 | 0.972 | 1.09 | 1.34 | 1.35 | 1.32 | 1.21
NCI-H520 | 0.747 | 0.834 | 0.882 | 0.66 | 0.335 | 0.355 | 0.325 | 0.225 |  | 1.05 | 1 | 0.946 | 1.05 |  | 0.612 | 0.73 | 0.744 | 0.737
NCI-H661 | 0.562 | 0.79 | 0.733 | 0.506 | 0.724 | 0.704 | 0.833 | 0.737 | 0.44 | 0.637 | 0.581 | 0.541 | 0.672 | 0.823 | 0.853 | 0.786 | 0.631 | 0.873
NCI-H727 | 0.599 | 0.533 | 0.72 | 0.468 | 0.609 | 0.742 | 0.587 | 0.627 | 0.311 | 0.336 | 0.35 | 0.237 | 0.245 | 0.791 | 0.938 | 0.98 | 0.928 | 1.11
NCI-H1734 | 0.594 | 0.721 | 0.741 | 0.614 | 0.62 | 0.618 | 0.673 | 0.488 | 0.823 | 0.963 | 0.905 | 0.942 | 0.933 | 0.846 | 0.897 | 1.01 | 0.996 | 0.935
LXF-289 | 1.05 | 1.02 | 1.04 | 1.08 | 0.97 | 1.05 | 1.06 | 1.06 | 0.973 | 0.957 | 0.921 | 0.93 | 0.98 | 0.998 | 1.02 | 0.993 | 0.91 | 0.956
H3255 | 0.641 | 0.697 | 0.743 | 0.688 | 0.573 | 0.534 | 0.602 | 0.554 | 0.888 | 0.954 | 1.01 | 0.814 | 1.03 | 0.695 | 0.723 | 0.75 | 1.06 | 0.92
201T | 1.02 | 1.03 | 1.08 | 1.02 | 0.833 | 0.853 | 0.878 | 0.806 | 0.942 | 1.04 | 1.06 | 1.06 | 0.989 | 1.09 | 1.14 | 1.13 | 1.1 | 1.11
NCI-H2126 | 0.779 | 0.769 | 0.851 | 0.852 | 0.902 | 0.904 | 0.967 | 0.847 | 0.563 | 0.734 | 0.749 | 0.677 | 0.774 | 1.05 | 1.14 | 1.11 | 1.07 | 1.09
HOP-62 | 0.782 | 0.871 | 0.652 | 0.718 | 0.313 | 0.172 | 0.211 | 0.355 | 0.9 | 0.973 |  | 1 | 0.859 | 0.642 | 0.724 |  | 0.935 | 0.923
CAL-12T | 1.03 | 1.12 | 1.46 | 0.979 | 0.735 | 0.663 | 0.822 | 0.683 | 0.83 | 0.927 | 0.792 | 0.941 | 0.981 | 1.05 | 1.01 | 0.843 | 1.04 | 1.35
NCI-H596 | 0.428 | 0.449 | 0.495 | 0.399 | 0.662 | 0.72 | 0.787 | 0.661 | 0.833 | 1.12 | 1.24 | 1.06 | 1.03 | 0.872 | 1.14 | 0.962 | 1.16 | 1.02
NCI-H1755 | 0.905 | 0.96 | 0.957 | 0.854 | 0.806 | 0.856 | 0.882 | 0.782 | 0.934 | 0.995 | 1.01 | 0.967 | 1.01 | 0.883 | 0.973 | 0.966 | 0.928 | 1.04
NCI-H2023 | 0.642 | 0.639 | 0.666 | 0.61 | 0.455 | 0.465 | 0.552 | 0.451 | 0.699 | 0.637 | 0.863 | 0.623 | 0.682 | 0.719 | 0.945 | 0.877 | 0.964 | 1.42
NCI-H2009 | 1.14 | 1.13 | 1.18 | 1.07 | 0.586 | 0.632 | 0.655 | 0.616 | 1.22 | 1.22 | 1.21 | 1.15 | 1.06 | 0.892 | 1.11 | 0.876 | 0.955 | 0.906
